# Measurements as given in patent publication US20200172530A1, “Small Molecule Sensitization of BAX Activation for Induction of Cell Death” (Dana-Farber Cancer Institute, Inc., priority 2017, published 2020).
# Legend:
# [1] = target: T1, recombinant, full length BAX (Homo sapiens, UniProt Q07812); test: Fluorescence polarization assay (direct and competitive); type: binding; conditions: FITC-peptide 25 nM, BAX 250 nM
# T1 construct: made in house; host or cells: E. coli BL21 (DE3)
# Protocol: FITC-peptide (25 nM) was incubated with a serial dilution of recombinant, full length BAX in binding buffer (20 mM Potassium phosphate, pH 6.2). For competitive FP, FITC-peptide (25 nM) was mixed with a fixed concentration of BAX (250 nM) and incubated with a serial dilution of acetylated peptide or a compound described herein. Fluorescence polarization was measured at equilibrium using a SpectraMax M5 microplate reader. Nonlinear regression analysis of dose-response curves was performed using Prism software 7 (GraphPad).
# [2] = target: T2, BAX (Homo sapiens, UniProt Q07812); test: Liposomal release assay (ANTS/DPX); type: biochemical
# T2 construct: Recombinant, full-length BAX was expressed in BL21 (DE3) E. coli using the pTYB1 vector; made in house; host or cells: E. coli BL21 (DE3)
# Protocol: Briefly, a lipid mixture containing a 48:28:10:10:4 molar ratio of phosphatidylcholine, phosphatidylethanolamine, phosphatidylinositol, dioleoyl phosphatidylserine, and tetraoleolyl cardiolipin (Avanti Polar Lipids) was generated in chloroform. Lipid films were formed by evaporation of solvent, initially under nitrogen gas and then by overnight vacuum, followed by storage at −80° C. under nitrogen. […] Liposomes were formed by 5 freeze/thaw cycles followed by extrusion through a 100 nm polycarbonate membrane and purified using a Sepharose CL-2B size exclusion column. […] ANTS/DPX release was monitored over time at room temperature in a spectrofluorometer (Tecan Infinite M1000) using an excitation wavelength of 355 nm, an emission wavelength of 540 nm, and a bandwidth of 20 nm. Maximal release was determined by the addition of Triton X-100 to a final concentration of 0.2% (v/v). Percent release was calculated according to Equation 1 shown below, where F is the observed release, and F0 and F100 are baseline and maximal fluorescence, respectively.
# First, baseline fluorescence with liposomes and compound alone was read, followed by the addition of BAX to evaluate for direct activation; then, BIM SAHBA2 was added to this mixture and the effect of the combination monitored, and compared with the triggering activity of BIM SAHBA2 and BAX in the absence of compound.
# [3] = Dynamic light scattering; type: physicochemical; conditions: 20 mM potassium phosphate buffer, pH 6.2
# Protocol: Samples were measured at room temperature on a DynaPro-99 instrument with a 90° detector angle using a 10 second acquisition time per measurement. Compounds were diluted from a 100 mM stock in 20 mM potassium phosphate buffer, pH 6.2 with 1% DMSO final concentration.
# [4] = NMR-based detection of small molecule aggregators; type: physicochemical; conditions: 20 mM potassium phosphate buffer, pH 6.2, 10% D2O
# Protocol: To detect line broadening, standard ^1H-NMR spectra were acquired. T2 decay curves were generated by measuring the CPMG NMR spectra of the molecules, performed as described above. The number of echo cycles corresponds to the decay time. The intensity of the aromatic peaks at the indicated decay times were measured and normalized to a maximum intensity of 1 at the 10 ms decay time. The curves were fitted to a one phase decay model using Prism software (Graphpad). Excitation sculpting was used for solvent suppression. Samples for both analyses were prepared in 20 mM potassium phosphate buffer, pH 6.2, 10% (v/v) D2O. Results of these measurements are described in FIGS. 12-13.
# T2 sequence (Q07812 whole entry): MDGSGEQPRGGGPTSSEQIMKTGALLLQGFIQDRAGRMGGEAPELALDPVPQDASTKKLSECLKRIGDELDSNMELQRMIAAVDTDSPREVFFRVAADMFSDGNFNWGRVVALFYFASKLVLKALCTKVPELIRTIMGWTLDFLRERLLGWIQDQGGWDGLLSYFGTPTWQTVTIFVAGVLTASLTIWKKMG
# T1 sequence (Q07812 whole entry): as above
Molecule,competition with FITC-BIM SAHBA2 for BAX interaction [1],maximal BAX-mediated liposomal release ([2]; BIM SAHBA2 alone with BAX) [%],direct BAX activation in liposomal release ([2]; single agent with BAX),light scattering (aggregation in solution) [3],T2 decay (aggregation) [4],line broadening in 1H-NMR spectrum (aggregation) [4]
"BIM SAHBA2: stapled BIM BH3 helix (aa 145-164), Ac-EIWIAQELRXIGDXFNAYYA-CONH2, X=stapling amino acid; direct BAX activator positive control",dose-responsively competed,50,induced time-responsive liposomal release,,,
O=C1C(I)=CC(=C(c2cc(I)c(O)c(I)c2)c2ccccc2C(=O)O)C=C1I [I4PTH],,,,dose-dependent increase in light scattering,,
Nc1ccc(Nc2ccccc2)cc1 [4-ADPA],,,,dose-dependent increase in light scattering,rapid T2 decay,
Oc1ccc(Oc2ccccc2)cc1 [BIF-44],,,,does not aggregate in solution,does not exhibit rapid or dose dependent decrease in T2 decay,does not exhibit line broadening
